Data taken from PMC10223992, “In Silico-Motivated Discovery of Novel Potent Glycogen Synthase-3 Inhibitors: 1-(Alkyl/arylamino)-3H-naphtho[1,2,3-de]quinoline-2,7-dione Identified as a Scaffold for Kinase Inhibitor Development” (Pharmaceuticals, 2023).
Several values for one entry are separate records, joined by “and”; a condition that tells them apart may be missing. Equal entries are not always repeated.

Target: T1, Homo sapiens GSK-3β (Homo sapiens, UniProt P49841)
T1 construct: purchased MRC Protein Phosphorylation & Ubiquitylation Unit, University of Dundee (screening service)
T1 sequence (P49841 whole entry): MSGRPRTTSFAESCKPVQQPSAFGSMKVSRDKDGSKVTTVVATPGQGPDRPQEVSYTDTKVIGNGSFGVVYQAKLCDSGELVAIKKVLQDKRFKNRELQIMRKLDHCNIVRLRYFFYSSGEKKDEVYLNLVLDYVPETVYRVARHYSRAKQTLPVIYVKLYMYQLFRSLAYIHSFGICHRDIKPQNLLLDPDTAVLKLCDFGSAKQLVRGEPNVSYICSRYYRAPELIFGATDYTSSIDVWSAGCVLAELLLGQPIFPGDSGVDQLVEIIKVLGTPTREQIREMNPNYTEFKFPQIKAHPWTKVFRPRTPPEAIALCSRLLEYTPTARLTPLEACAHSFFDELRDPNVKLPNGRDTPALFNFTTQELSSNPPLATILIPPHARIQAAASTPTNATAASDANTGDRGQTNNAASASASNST
Assay: in vitro GSK-3β binding assay (kinase inhibition, MRC PPU Dundee)
Assay type: biochemical
Details: in vitro binding assay, duplicate
Procedure: (§1) All predicted inhibitors for testing (except compound 3) were purchased from Vitas-M Laboratory, with purity ≥ 90%. Compound 3 was purchased from Biosynth Carbosynth with purity of 95%. Binding assay experiments against Homo sapiens GSK-3β were performed using a specialist service from the MRC Protein Phosphorylation & Ubiquitylation Unit at the University of Dundee (http://www.kinase-screen.mrc.ac.uk/ (accessed on 1 April 2023)). Initial assays underwent single concentration screening at 50 µM concentrations to determine those compounds showing the best inhibitory potential. Inhibitory activities were calculated based on maximal activities measured in the absence of an inhibitor. […] In the kinase selectivity panel screening for 14 and 19, the compounds were assayed at single concentration (50 μM) against CDK2, CDK5, CDK9, ERK1, ERK2, PKA, PKBβ, PKCα, PKCγ, GSK-3α, and GSK-3β. All binding assay experiments were performed in duplicate.

Structure (SMILES) | IC50
O=C1c2ccccc2-c2c(NC3CCCCC3)c(=O)[nH]c3cccc1c23 [Compound 18] | 25300 ± 3500 nM
Nc1ccc2ncnc3c2c1C(=O)c1ccccc1-3 [Compound 1, 6-amino-7H-benzo[e]perimidin-7-one] | 1630 ± 300 nM
COc1ccc(Nc2c3c4c(c(Br)ccc4n(C)c2=O)C(=O)c2ccccc2-3)cc1 [Compound 17] | 14000 ± 3100 nM
COc1cccc2c1cc1c3c(cc4c(c32)OCO4)C(=O)N1 [Compound 3, 8-methoxy-[1,3]dioxolo[4′,5′:4,5]benzo[1,2,3-cd]benzo[f]indol-5(6H)-one] | 63700 ± 3300 nM
COc1ccc(Nc2c3c4c(cccc4[nH]c2=O)C(=O)c2ccccc2-3)cc1 [Compound 15] | 11400 ± 600 nM
Cn1c(=O)c(NCCO)c2c3c(cccc31)C(=O)c1ccccc1-2 [Compound 21] | 17000 ± 2700 nM
Cc1cc(C)cc(Nc2c3c4c(cccc4[nH]c2=O)C(=O)c2ccccc2-3)c1 [Compound 14] | < 10000 nM and 9100 nM
Cc1ccc(Nc2c3c4c(cccc4[nH]c2=O)C(=O)c2ccccc2-3)cc1 [Compound 13] | < 10000 nM and 9400 nM
CCCCNc1c2c3c(cccc3[nH]c1=O)C(=O)c1ccccc1-2 [Compound 19] | < 10000 nM and 4900 nM
COc1ccccc1Nc1c2c3c(cccc3n(C)c1=O)C(=O)c1ccccc1-2 [Compound 16] | 27100 ± 1100 nM
COc1ccc([C@@H]2CC(=O)Nc3cccc4c3c2cn4Cc2ccccc2)c(OC)c1 [Compound 4, (R)-1-benzyl-3-(2,4-dimethoxyphenyl)-1,3,4,6-tetrahydro-5H-azepino[4,3,2-cd]indol-5-one] | 87500 ± 9170 nM
Nc1c2c3c(cccc3[nH]c1=O)C(=O)c1ccccc1-2 [Compound 22] | 36700 ± 5700 nM
O=C1c2ccccc2-c2c(Nc3ccccc3)c(O)nc3cccc1c23 [Compound 2, 1-(phenylamino)-3H-naphtho[1,2,3-de]quinoline-2,7-dione] | 20600 ± 3800 nM
COCCCNc1c(O)nc2cccc3c2c1-c1ccccc1C3=O [Compound 20] | < 10000 nM and 9100 nM

Same assay, conditions: single concentration 50 µM

Structure (SMILES) | inhibition at 50 µM
O=C1Nc2ccccc2C(=O)N2c3ccccc3C[C@@H]12 [Compound 5, (S)-12a,13-dihydro-6H-benzo[5,6][1,4]diazepino[1,2-a]indole-6,12(11H)-dione] | 20%
O=C1Nc2cc(Cl)ccc2/C1=C/c1cccc2[nH]ccc12 [Compound 12, (Z)-3-((1H-indol-4-yl)methylene)-6-chloroindolin-2-one] | < 0%
Cc1ccc2c(c1)[C@]1(N[C@@H]([C@@H](C)O)[C@H]3C(=O)N(Cc4ccc5c(c4)OCO5)C(=O)[C@H]31)C(=O)N2 [Compound 10, (3S,3′R,3a′S,6a′R)-5′-(benzo[d][1,3]dioxol-5-ylmethyl)-3′-((R)-1-hydroxyethyl)-5-methyl-2′,3′,3a′,6a′-tetrahydro-4′H-spiro[indoline-3,1′-pyrrolo[3,4-c]pyrrole]-2,4′,6′(5′H)-trione] | 6%
COc1ccc(Cn2cnc3c([nH]c4ccccc43)c2=O)cc1OC [Compound 9, 3-(3,4-dimethoxybenzyl)-3,5-dihydro-4H-pyrimido[5,4-b]indol-4-one] | 9%
COc1cc2c(cc1OC)[C@@H](c1c(O)[nH]c(=O)n(-c3ccc(C)c(C)c3)c1=O)NCC2 [Compound 11, (S)-5-(6,7-dimethoxy-1,2,3,4-tetrahydroisoquinolin-1-yl)-3-(3,4-dimethylphenyl)-6-hydroxypyrimidine-2,4(1H,3H)-dione] | 2%
O=C1N/C(=C/c2ccccc2)C(=O)N2Cc3ccccc3C[C@@H]12 [Compound 8, (S,E)-3-benzylidene-2,3,11,11a-tetrahydro-4H-pyrazino[1,2-b]isoquinoline-1,4(6H)-dione] | 10%
CN(C)CCn1cnc2c1c(=O)[nH]c(=O)n2Cc1ccccc1 [Compound 6, 3-benzyl-7-(2-(dimethylamino)ethyl)-3,7-dihydro-1H-purine-2,6-dione] | 11%
Cc1coc2cc3oc(=O)c(CC(=O)N[C@H]4CCCc5c4[nH]c4ccccc54)c(C)c3cc12 [Compound 7, (S)-2-(3,5-dimethyl-7-oxo-7H-furo[3,2-g]chromen-6-yl)-N-(2,3,4,9-tetrahydro-1H-carbazol-1-yl)acetamide] | 10%

Same assay, conditions: single-dose profiling 50 μM

Structure (SMILES) | % remaining activity (GSK-3β)
Cc1cc(C)cc(Nc2c3c4c(cccc4[nH]c2=O)C(=O)c2ccccc2-3)c1 [Compound 14] | < 50%
CCCCNc1c2c3c(cccc3[nH]c1=O)C(=O)c1ccccc1-2 [Compound 19] | < 50%

Target: GSK-3α (Homo sapiens, UniProt P49840)
Sequence (P49840 whole entry, species assumed): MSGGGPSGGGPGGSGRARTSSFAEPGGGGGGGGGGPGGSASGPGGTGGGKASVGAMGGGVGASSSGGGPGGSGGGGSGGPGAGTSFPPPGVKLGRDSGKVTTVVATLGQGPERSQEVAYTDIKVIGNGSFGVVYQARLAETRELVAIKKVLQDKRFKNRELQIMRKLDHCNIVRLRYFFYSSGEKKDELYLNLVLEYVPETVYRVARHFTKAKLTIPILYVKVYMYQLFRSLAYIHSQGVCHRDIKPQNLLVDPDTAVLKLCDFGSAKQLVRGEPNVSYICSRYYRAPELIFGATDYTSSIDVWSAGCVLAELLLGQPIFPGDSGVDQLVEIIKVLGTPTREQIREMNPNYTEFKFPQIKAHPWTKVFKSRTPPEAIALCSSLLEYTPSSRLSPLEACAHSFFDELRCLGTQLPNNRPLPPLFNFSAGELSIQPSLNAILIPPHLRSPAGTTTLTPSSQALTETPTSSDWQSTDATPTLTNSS
Assay: kinase selectivity screening, GSK-3α
Assay type: biochemical
Details: not given
Procedure: as §1

Structure (SMILES) | IC50
Cc1cc(C)cc(Nc2c3c4c(cccc4[nH]c2=O)C(=O)c2ccccc2-3)c1 [Compound 14] | 2300 ± 400 nM
CCCCNc1c2c3c(cccc3[nH]c1=O)C(=O)c1ccccc1-2 [Compound 19] | 1700 ± 100 nM

Same assay, conditions: single-dose profiling 50 μM

Structure (SMILES) | % remaining activity (GSK-3α)
Cc1cc(C)cc(Nc2c3c4c(cccc4[nH]c2=O)C(=O)c2ccccc2-3)c1 [Compound 14] | < 50%
CCCCNc1c2c3c(cccc3[nH]c1=O)C(=O)c1ccccc1-2 [Compound 19] | < 50%

Target: PKBβ (Homo sapiens, UniProt P31751)
Sequence (P31751 whole entry, species assumed): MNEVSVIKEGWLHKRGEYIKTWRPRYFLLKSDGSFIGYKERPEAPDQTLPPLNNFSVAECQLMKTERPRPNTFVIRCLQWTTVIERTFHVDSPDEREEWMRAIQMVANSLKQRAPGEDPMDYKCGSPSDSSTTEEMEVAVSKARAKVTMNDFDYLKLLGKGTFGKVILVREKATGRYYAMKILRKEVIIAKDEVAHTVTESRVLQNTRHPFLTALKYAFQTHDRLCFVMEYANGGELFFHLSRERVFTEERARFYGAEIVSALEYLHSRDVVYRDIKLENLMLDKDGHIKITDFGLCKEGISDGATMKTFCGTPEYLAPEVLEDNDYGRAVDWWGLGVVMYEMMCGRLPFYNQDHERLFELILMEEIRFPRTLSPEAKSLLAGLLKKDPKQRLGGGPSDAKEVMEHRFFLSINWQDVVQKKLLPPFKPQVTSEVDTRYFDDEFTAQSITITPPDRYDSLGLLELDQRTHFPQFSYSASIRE
Assay: kinase selectivity screening, PKBβ
Assay type: biochemical
Details: not given
Procedure: as §1

Structure (SMILES) | IC50
Cc1cc(C)cc(Nc2c3c4c(cccc4[nH]c2=O)C(=O)c2ccccc2-3)c1 [Compound 14] | 14900 ± 1500 nM
CCCCNc1c2c3c(cccc3[nH]c1=O)C(=O)c1ccccc1-2 [Compound 19] | 24600 ± 200 nM

Target: ERK2 (Homo sapiens, UniProt P28482)
Sequence (P28482 whole entry, species assumed): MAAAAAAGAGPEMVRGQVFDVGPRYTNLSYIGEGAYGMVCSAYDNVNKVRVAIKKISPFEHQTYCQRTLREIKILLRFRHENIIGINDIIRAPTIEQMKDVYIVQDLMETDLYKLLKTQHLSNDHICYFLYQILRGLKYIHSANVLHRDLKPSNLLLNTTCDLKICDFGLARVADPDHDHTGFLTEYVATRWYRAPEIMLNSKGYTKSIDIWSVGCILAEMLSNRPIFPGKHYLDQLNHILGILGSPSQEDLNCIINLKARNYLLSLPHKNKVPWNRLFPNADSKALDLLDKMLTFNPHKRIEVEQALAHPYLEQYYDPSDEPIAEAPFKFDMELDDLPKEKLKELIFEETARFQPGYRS
Assay: kinase selectivity screening, ERK2
Assay type: biochemical
Details: not given
Procedure: as §1

Structure (SMILES) | IC50
Cc1cc(C)cc(Nc2c3c4c(cccc4[nH]c2=O)C(=O)c2ccccc2-3)c1 [Compound 14] | 21300 nM

Target: PKCγ (Homo sapiens, UniProt P05129)
Assay: kinase selectivity screening, PKCγ
Assay type: biochemical
Details: not given
Procedure: as §1

Structure (SMILES) | IC50
CCCCNc1c2c3c(cccc3[nH]c1=O)C(=O)c1ccccc1-2 [Compound 19] | 11000 ± 1500 nM

Tested on: GSK-3β
Assay: not given
Set-up: method as in ChEMBL database [53]
Details: Table S1, ChEMBL data; ref ChEMBL database [53]; read-out: IC50 (GSK-3β, known actives); cited from earlier work

Structure (SMILES) | IC50
O=C1Nc2ccccc2/C1=C/c1ccccn1 [CHEMBL2094331] | 4.19 nM
Cc1ccc(-c2c[nH]c(C3COCCN3Cc3c[nH]c4ccccc34)n2)cc1 (centres unmarked) [CHEMBL2297166] | 120 nM
COc1ccc(-c2cc(-c3ccc(F)cc3)[nH]c(=O)c2O)cc1 [CHEMBL1630451] | 325 nM
OCC/N=c1\nc(-c2ccccc2)n(-c2cccc3ccccc23)s1 [CHEMBL2022413] | 300 nM
COc1ccc2c(c1C(C)N1CCNCC1)O/C(=C\c1n[nH]c3ncccc13)C2=O (centres unmarked) [CHEMBL3735890] | 6.1 nM
O=C(NC1CCNCC1)c1n[nH]cc1NC(=O)c1c(Cl)cccc1Cl [CHEMBL445813] | 200 nM
COc1ccncc1-c1ccc2[nH]nc(C(=O)NCC3CCN(CCc4ccccc4)CC3)c2c1 [CHEMBL3735603] | 20 nM
Oc1ccc(Nc2ncnc3[nH]cnc23)cc1CN(CCCl)CCCl [CHEMBL1630434] | 10.8 nM
O=C(NCCc1cccnc1Cl)c1ccnc2[nH]c(-c3ccoc3)nc12 [CHEMBL2048673] | 9 nM
Fc1cnc2[nH]nc(Nc3cc(C(F)(F)F)cc(-c4ccccc4Cl)n3)c2c1 [CHEMBL3661029] | 50 nM
COc1cc(F)cc(F)c1C1CN(c2nc(-c3ccncn3)cc(=O)n2C)CCN1 (centres unmarked) [CHEMBL4071429] | 1.7 nM
Cc1ccccc1-n1cc(-c2ccccn2)nn1 [CHEMBL1938959] | 490 nM
COc1cccc(-n2ncc3c(N/N=C/c4ccc(OCCN(C)C)cc4)ncnc32)c1 [CHEMBL303321] | 6.31 nM
COc1ccc(-n2cnc3ccc(-c4nnc(SCc5cccc(C(F)(F)F)c5)o4)cc32)cc1 [CHEMBL513570] | 2.5 nM
COc1ccc(-c2ocnc2C(=O)NCc2ccn3ccnc3c2)cc1Cl [CHEMBL1957231] | 5.01 nM
COc1ccc(-c2oc3ncnc(N)c3c2-c2cccnc2)cc1 [CHEMBL361567] | 80 nM
O=CN1Cc2cccc3c(C4=C(c5cnc6ccccn56)C(=O)NC4=O)cn(c23)CC1N1CCOCC1 (centres unmarked) [CHEMBL4162850] | 1.3 nM
COc1cc(C2=C(c3cn(CCN4CCN(C)CC4)c4ccccc34)C(=O)NC2=O)c2occc2c1 [CHEMBL564450] | 0.14 nM
Nc1c(Br)cc(C(=O)C(Br)Br)cc1Br [CHEMBL1801628] | 500 nM

Structure (SMILES) | IC50
O=c1[nH]cnc2[nH]c(-c3ccnc(/C=C/c4ccc(CN5CCOCC5)cc4)c3)cc12 [CHEMBL461139] | 300 nM
Cc1[nH]c2ccccc2c1C1=C(NCCc2ccc(F)cc2)C(=O)N(C)C1=O [CHEMBL1254896] | 53 nM
Cc1ccc(-n2cc(CSC3=NC(c4ccccc4)CC(=O)N3C)nn2)cc1C (centres unmarked) [CHEMBL4635819] | 82 nM
O=C1Cc2cc(Br)ccc2/C1=c1/[nH]c2ccccc2/c1=C\O [CHEMBL4077172] | 5 nM
COc1ccc(Nc2nnc(-c3ccc(C(F)(F)F)cc3)o2)cc1 [CHEMBL1630483] | 53 nM
N#Cc1ccc2[nH]c(O)c(-c3ccc(CN4CCOCC4)cn3)c2c1 [CHEMBL1969664] | 31 nM
COc1cccc(Nc2nccc(C3=C(c4ccccc4)NN4C=CC=CC34)n2)c1 (centres unmarked) [CHEMBL403405] | 30 nM
CCc1ccc(-n2cc(CSc3nnc(Cn4c(C(F)(F)F)nc5ccccc54)o3)nn2)cc1 [CHEMBL4643895] | 390 nM
C=CCOC(=O)c1cc(-c2ccc(/C=C3/NC(=S)NC3=O)o2)ccc1Cl [CHEMBL4568120] | 218 nM
O=C(/C=C/c1cnc2[nH]cc(-c3ccccc3)c2c1)NCCN1CCOCC1 [CHEMBL3891139] | 46 nM
O=C1Nc2ccccc2/C1=C1/Nc2cc(Br)ccc2C1=O [CHEMBL1830063] | 4 nM
CCOC(=O)C/N=c1\nc(-c2ccc(OC)cc2)n(-c2ccccc2)s1 [CHEMBL2024372] | 500 nM
C[C@@H]1C[C@H]2CN1CCn1nc3c(cccc3c1O)-c1nc3c(cccc3nc1O)O2 [CHEMBL215803] | 13 nM
O=C(CCl)c1scc(Br)c1Br [CHEMBL357136] | 500 nM
COc1ccc(-c2cc3c(NC(=O)CC4CCCC4)ncnc3o2)cc1 [CHEMBL182891] | 320 nM
Clc1ccccc1-c1cc(NCOc2cccnc2)n2ncc(Br)c2n1 [CHEMBL398621] | 35 nM

Same assay, conditions: read-out: IC50 (GSK-3β, known actives); cited from earlier work

Structure (SMILES) | IC50
Cc1nn(-c2ccc(Cl)cc2Cl)c2c1c1c(c3cccn32)C(=O)NC1=O [CHEMBL3110144] | 240 nM
CN(C)C[C@@H](OC(=O)N1Cc2c(NC(=O)C(C)(C)C)n[nH]c2C1(C)C)c1ccccc1 [CHEMBL2064628] | 227 nM
